Patent US8835418B2, “Hexafluoroisopropyl carbamate derivatives, their preparation and their therapeutic application” (SANOFI, priority 2010, dated 2014)
pIC50: −log10 of the molar value. Structures can show the parent of a compound that is named as a salt.

Legend:
[1] = target: T1, enzyme MGL (monoacyl glycerol lipase) (Mus musculus, UniProt O35678); test: radioenzymatic assay of MGL activity (hydrolysis of [3H]2-oleoylglycerol by mouse brain homogenate); format: biochemical; conditions: mouse brain homogenate (37.5 μg protein), 20 min preincubation, 50 μM 2-OG with [3H]2-OG, ambient temperature, read-out: IC50 (concentration which inhibits the control enzymatic activity of the MGL by 50%)
T1 construct: The source of enzyme MGL is a homogenate of mouse brain from which the cerebellum and the medulla oblongata have been removed; from tissue; host or cells: mouse brain homogenate (cerebellum and medulla oblongata removed)
T1 sequence (O35678 1-303): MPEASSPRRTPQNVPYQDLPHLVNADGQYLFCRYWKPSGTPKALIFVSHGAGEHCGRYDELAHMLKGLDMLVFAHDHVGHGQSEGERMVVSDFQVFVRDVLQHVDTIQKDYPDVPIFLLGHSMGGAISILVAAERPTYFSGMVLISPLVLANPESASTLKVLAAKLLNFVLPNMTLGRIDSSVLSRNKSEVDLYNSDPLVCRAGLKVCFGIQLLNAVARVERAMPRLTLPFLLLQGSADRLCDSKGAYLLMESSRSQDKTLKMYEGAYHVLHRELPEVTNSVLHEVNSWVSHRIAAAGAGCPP
Description: The inhibitory activity with respect to MGL is given by the concentration which inhibits 50% of the activity of MGL.
The inhibitory activity was measured in a radioenzymatic assay based on measuring the product of hydrolysis of 2-oleoylglycerol ([^3H]2-OG) by the enzyme MGL. The products of hydrolysis of [^3H]2-OG, labelled on the glycerol, are oleic acid and [^3H]glycerol. The source of enzyme MGL is a homogenate of mouse brain from which the cerebellum and the medulla oblongata have been removed. The mouse brains are removed and stored at −80° C. until they are used or homogenized immediately for 2 times 5 seconds using a Precellys device (Bertin) at 5000 rpm in a 10 mM Tris-HCl pH 8, 150 mM NaCl, 1 mM EDTA buffer at 4° C.
The dilution series of the compounds is prepared from stock solutions at 20 mM in 100% DMSO. The first dilution of this series is prepared in 100% DMSO and then the second is prepared in the enzymatic reaction buffer (50 mM phosphate, 0.1% BSA), resulting in the preparation of a 10-times concentrated concentration range. The test compounds are preincubated at the chosen concentration for 20 minutes with the mouse brain homogenate preparation.
Assaying of the MGL activity is carried out at ambient temperature in a 96-well microplate in a final reaction volume of 50 μl. […] After 20 minutes of preincubation with the test compounds, the proteins are incubated for 20 minutes in the presence of 50 μM of 2-OG comprising an amount of [^3H]2-OG of 0.027 μCi per well (specific activity of 20 Ci/mmol). The reaction is stopped by the addition of 50 μl per well of a charcoal suspension (6% of Sigma activated charcoal, reference C4386, in suspension in a 0.5M HCl, 1.5M NaCl solution). After stirring for 10 minutes, the [^3H]glycerol, not retained by the charcoal, is collected by filtration in a microplate comprising 100 μl of scintillant (OptiPhase Supermix, Perkin-Elmer) per well.

melting point | pIC50 [1] | SMILES
225 to 235 °C (dec.) | – | O=C(OC(C(F)(F)F)C(F)(F)F)N1CCC(Nc2ccc(C(F)(F)F)cn2)CC1 (as salt: hydrochloride) [Compound 65, 2,2,2-Trifluoro-1-(trifluoromethyl)ethyl 4-(5-(trifluoromethyl)pyridin-2-ylamino)piperidine-1-carboxylate hydrochloride (1:1)]
54 to 56 °C | – | N#Cc1ccc(C2CCN(C(=O)OC(C(F)(F)F)C(F)(F)F)CC2)cc1 [Compound 5, 2,2,2-Trifluoro-1-(trifluoromethyl)ethyl 4-(4-cyanophenyl)piperidine-1-carboxylate]
91 to 93 °C | – | O=C(OC(C(F)(F)F)C(F)(F)F)N1CCC(c2noc3cc(F)ccc23)CC1 [Compound 10, 2,2,2-Trifluoro-1-(trifluoromethyl)ethyl 4-(6-fluorobenz[d]isoxazol-3-yl)piperidine-1-carboxylate]
231 to 233 °C | – | O=C(OC(C(F)(F)F)C(F)(F)F)N1CCC(n2c(=O)[nH]c3cc(Cl)ccc32)CC1 [Compound 12, 2,2,2-Trifluoro-1-(trifluoromethyl)ethyl 4-(5-chloro-2-oxo-2,3-dihydrobenzimidazol-1-yl)piperidine-1-carboxylate]
– | 8.22 | O=C(OC(C(F)(F)F)C(F)(F)F)N1CCC(n2nnc3cc(C(F)(F)F)ccc32)CC1 [Compound 13, 2,2,2-Trifluoro-1-(trifluoromethyl)ethyl 4-(5-(trifluoromethyl)benzotriazol-1-yl)piperidine-1-carboxylate]
72 to 73 °C | – | O=C(OC(C(F)(F)F)C(F)(F)F)N1CC[C@H](Oc2cccc(-c3ccc(F)cc3)c2)C1 [Compound 22, 2,2,2-Trifluoro-1-(trifluoromethyl)ethyl (S)-3-(4′-fluorobiphenyl-3-yloxy)pyrrolidine-1-carboxylate]
72 to 73 °C | – | O=C(OC(C(F)(F)F)C(F)(F)F)N1CC[C@@H](Oc2cccc(-c3ccc(F)cc3)c2)C1 [Compound 23, 2,2,2-Trifluoro-1-(trifluoromethyl)ethyl (R)-3-(4′-fluorobiphenyl-3-yloxy)pyrrolidine-1-carboxylate]
80 to 82 °C | 9.22 | N#Cc1cccc(-c2cccc(OC3CCN(C(=O)OC(C(F)(F)F)C(F)(F)F)CC3)c2)c1 [Compound 33, 2,2,2-Trifluoro-1-(trifluoromethyl)ethyl 4-(3′-cyanobiphenyl-3-yloxy)piperidine-1-carboxylate]
151 to 153 °C | 8.30 | N#Cc1cccc(-c2nccc(NC3CCN(C(=O)OC(C(F)(F)F)C(F)(F)F)CC3)n2)c1 [Compound 70, 2,2,2-Trifluoro-1-(trifluoromethyl)ethyl 4-[2-(3-cyanophenyl)pyrimidin-4-ylamino]pipendine-1-carboxylate]
77 to 78 °C | – | CC(C)(Oc1ccc(Cl)cc1)C(=O)NCC1CCN(C(=O)OC(C(F)(F)F)C(F)(F)F)CC1 [Compound 87, 2,2,2-Trifluoro-1-(trifluoromethyl)ethyl 4-{[2-(4-chlorophenoxy)-2-methylpropionylamino]-methyl}piperidine-1-carboxylate]
135 to 136 °C | – | O=C(OC(C(F)(F)F)C(F)(F)F)N1CCC(CNS(=O)(=O)c2cccc3ccccc23)C1 (stereo not drawn) [Compound 113, 2,2,2-Trifluoro-1-(trifluoromethyl)ethyl 3-[(naphthalene-1-sulphonylamino)methyl]-pyrrolidine-1-carboxylate]
204 to 206 °C | – | O=C(Nc1cccc(Cl)c1)NC1CCN(C(=O)OC(C(F)(F)F)C(F)(F)F)CC1 [Compound 166, 2,2,2-Trifluoro-1-(trifluoromethyl)ethyl 4-[3-(3-chlorophenyl)ureido]piperidine-1-carboxylate]
116 to 117 °C | 8.96 | O=C(NCCC1CN(C(=O)OC(C(F)(F)F)C(F)(F)F)C1)Nc1cccc(Cl)c1 [Compound 188, 2,2,2-Trifluoro-1-(trifluoromethyl)ethyl 3-{2-[3-(3-chlorophenyl)ureido]ethyl}azetidine-1-carboxylate]
101 to 102 °C | – | CN(C(=O)NCCC1CN(C(=O)OC(C(F)(F)F)C(F)(F)F)C1)c1ccccc1 [Compound 191, 2,2,2-Trifluoro-1-(trifluoromethyl)ethyl 3-[2-(3-methyl-3-phenylureido)ethyl]azetidine-1-carboxylate]
146 to 148 °C | 8.15 | O=C(OC(C(F)(F)F)C(F)(F)F)N1CCC(CNS(=O)(=O)c2cccc3nsnc23)CC1 [Compound 211, 2,2,2-Trifluoro-1-(trifluoromethyl)ethyl 4-[(benzo[1,2,5]thiadiazole-4-sulphonylamino)methyl]piperidine-1-carboxylate]
108 to 109 °C | – | O=C(OC(C(F)(F)F)C(F)(F)F)N1CC(C2(NS(=O)(=O)c3ccc(Cl)cc3)CC2)C1 [Compound 220, 2,2,2-Trifluoro-1-(trifluoromethyl)ethyl 3-[1-(4-chlorobenzenesulphonylamino)cyclopropyl]-azetidine-1-carboxylate]
98 to 118 °C | – | NC(=O)c1cnn(CC2CCN(C(=O)OC(C(F)(F)F)C(F)(F)F)CC2)c1 [Compound 231, 2,2,2-Trifluoro-1-(trifluoromethyl)ethyl 4-(4-carbamoylpyrazol-1-ylmethyl)piperidine-1-carboxylate]
